# US6174875A, “Benzoquinoid ansamycins for the treatment of cardiac arrest and stroke” (priority 1999, dated 2001)
# How the values were obtained:
# in vivo = details: mouse, iv, 60 mg/kg
# Experimental: 17-allylaminogeldanamycin (17-AAG) (60 mg/kg) was administered to CD2F1 mice by intravenous (iv) injection. Brain levels of 17-AAG were determined at various time points after administration.
# cultured neurons = details: cited from earlier work
# HT22 cells [1] = experiment: Glutamate-induced cytotoxicity in HT22 cells by phase contrast/light microscopy and trypan blue staining; type: cell-based, mouse
# Experimental: (§1) HT22 cells were seeded on 60 mm tissue culture dishes at 300,000 cells per dish and grown overnight. […] In order to provide a more accurate assessment of glutamate-induced oxidative toxicity, the ability of HT22 cells to metabolize 3-(4,5-[…]-2-yl)-2,5-diphenyl tetrazolium bromide (MTT) was assayed. The reduction of this dye by viable cells can easily be detected spectrophotometrically as described by Mosman (1983) J. Immunol. Methods 65:55 with reduced HT22 cell viability directly correlated with decreased metabolism of MTT (Shubert et al. (1992) Proc. Natl. Acad. Sci. USA 89:8264). HT22 cells were seeded on 96-well plates at 5,000 cells per well and grown for 12 hours. Cells were then treated with 2 mM, 5 mM or 10 mM concentrations of glutamate. […] After a total incubation period of 20 hours, cell viability was measured using an MTT assay as described by Li et al. (1997) Neuron 19:453. Briefly, 10 μl of MTT solution (5 mg/ml) was added to each well and cells incubated for an additional 4 hours. 100 μl of solubilization solution (50% dimethylformamide and 20% SDS, pH 4.8) was added and left on the cells 5 overnight, after which light absorption at 570 nm was measured. Values (% Viability) represent the average of quadruplicate (FIG. 1) or triplicate (FIG. 2) determinations±S.D. Similar results were obtained in a replicate experiment. Cell viability was expressed relative to control cells treated with GA or Herb alone.
# hsp90 in HT22 cells = experiment: Western blot of steady state hsp90 levels in HT22 cells; type: cell-based, mouse; details: 0.1 μg/ml GA
# Experimental: (§2) Cells were harvested and lysed by sonication in 0.25 M Tris-HCl, pH 7.5 and lysates clarified by centrifugation at 14,000 rpm for 10 minutes at 4 ° C. Equivalent amounts of lysate protein (5 μg) were used for Western blot analysis as described by Xiao et al. (1997) Mol. Endocrinol. 11: 1365. The inducible form of the 70 kDa heat shock protein, hsp70, was uniquely detected using the SPA-810 monoclonal antibody (StressGen). GA induction of hsp70 was evident within 3 hours of GA treatment, was maximal upon 9 hours of GA treatment, and persisted for at least 12 hours in the presence of GA.
# raf-1 in rat brain = experiment: Western blot of raf-1 in rat hippocampus after intracranial ventricular injection; type: in vivo; details: 20 μg geldanamycin icv, 12 or 24 hours (FIGS. 5A, 5B)
# Experimental: (§3) Geldanamycin was delivered to rat brain by intracranial ventricular (icv) injection as follows. Rats were stereotaxically fitted with 4 mm×22 gauge guide cannulae directed at the lateral ventricle (AP-2.0, ML+2.0). […] The injector was removed and replaced with a stylet. At 12 or 24 hours after injection, hippocampi were isolated from which whole cell extracts were prepared and subjected to Western blot analysis to visualize raf- 1 and actin, or hsp70. Negative and positive control protein samples for hsp70 were prepared from untreated or heat shocked HT22 cells. Western blot analysis is depicted in FIGS. 5A and 5B in which the (-) and (+) lanes refer to the negative and positive control samples.
# [2] = test system: Male Sprague-Dawley rats (asphyxial cardiac arrest); type: in vivo, rat
# Excerpt: In rats, asphyxia produces circulatory arrest that can be reversed by mechanical ventilation and external chest compression (Katz et al. (1995) J. Cereb. Blood Flow Metab. 15:1032). […] Meaningful behavioral scores that predictable detect neurological deficits which closely mimic the types of deficits observed in patients that recover from cardiac arrest have been developed. Animal protocols were approved by the Institutional Animal Care and Use Committee of the University of Pittsburgh. Male Sprague-Dawley rats weighing 318±17 gm (Harlan, Indianapolis, Ind.) were anesthetized with 0.8% halothane in oxygen, endotracheally intubated using a 14 gauge angiocath, and mechanically ventilated using a Harvard rodent ventilator (0.9 cc/kg, 40 respirations/min). Blood pressure and arterial blood gases are monitored via a femoral arterial catheter (PE-50 tubing, IntraMedic), and drugs administered via a femoral venous catheter (PE-50). Tympanic temperature was maintained at 36.9±0.2° C. by manipulating an overhead 100 W lamp. After chemical paralysis with 2 mg/kg vecuronium and reducing the fraction of inspired oxygen to 0.21 (room air) mechanical ventilation was discontinued at end-expiration. Cardiac arrest (mean arterial pressure <10 mmHg) reliably occurred within 180 seconds. […]
# hsp70 in fibroblasts = details: cited from earlier work
# HT22 cells [3] = experiment: Internucleosomal DNA cleavage (apoptosis) in HT22 cells; type: cell-based, mouse
# Experimental: HT22 cells were treated with 5 mM glutamate (Glu) for 20 hours. […] Controls included HT22 cells not treated with Glu or GA and cells treated with GA alone.
# [4] = test system: myogenic H9c2 cells and cardiomyocytes; details: pretreatment; cited from earlier work
# HT22 cells [5] = experiment: MTT viability assay of glutamate-treated HT22 cells; type: cell-based, mouse
# Experimental: as §1, with “overnight. Cells were then incubated in the presence of 5 mM glutamate for 20 hours.” for “overnight.”
# [6] = test system: glutathione levels in HT22 cells; experiment: Cellular glutathione (GSH) levels in HT22 cells (monochlorobimane fluorescence); type: cell-based, mouse; details: 0.1 μg/ml GA, 5 mM glutamate, 2-8 hours (FIG. 3)
# Experimental: Cellular glutathione (GSH) levels were measured in HT22 cells as described previously by Kane (1993) Science 262:1274. Briefly, HT22 cells were seeded onto 96-well plates at 20,000 cells per well and grown overnight. […] Monochlorobimane was added to 40 μM and following an additional 30 minutes of incubation, fluorescence at 460 nm in response to excitation at 395 mn was measured using a Perkin Elmer fluorescence plate reader. Values represent the average of triplicate experiments±S.D.
# [7] = test system: hsp90-associated signaling molecules; details: other cultured cells; cited from earlier work
# hsp70 in rat brain = experiment: Western blot of hsp70 in rat hippocampus after intracranial ventricular injection; type: in vivo; details: 20 μg geldanamycin icv, 12 or 24 hours (FIGS. 5A, 5B)
# Experimental: as §3
# [8] = test system: heat shock proteins in rat cardiomyocytes; details: cited from earlier work; for overexpression of heat shock proteins in cardiomyocytes: pretreatment
# [9] = test system: heat shock proteins in myogenic H9c2 cells; details: cited from earlier work; for overexpression of heat shock proteins in myogenic H9c2 cells: pretreatment
# hsp70 in HT22 cells = experiment: Western blot of inducible hsp70 expression in HT22 cells; type: cell-based, mouse
# Experimental: as §2
compound,measurement,setting,value
"C=CCNC1=C2CC(C)CC(OC)C(O)C(C)C=C(C)C(OC(N)=O)C(OC)C=CC=C(C)C(=O)NC(=CC1=O)C2=O (stereo not drawn) [17-AAG, 17-allylaminogeldanamycin]",concentration at 24 h,in vivo,100 ng/g
CC(=O)Oc1ccccc1C(=O)O [aspirin],protection of cultured neurons from oxidative toxicity,cultured neurons,protect cultured neurons from this form of toxicity
COC1=C2C[C@@H](C)C[C@H](OC)[C@H](O)[C@@H](C)/C=C(\C)[C@H](OC(N)=O)[C@@H](OC)/C=C\C=C(/C)C(=O)NC(=CC1=O)C2=O [geldanamycin],protection from glutamate-induced oxidative toxicity (phase contrast),"HT22 cells [1]; 0.1 μg/ml GA, 5 mM glutamate, GA added at same time or 1, 2 or 6 hours after glutamate",led to protection from glutamate-induced oxidative toxicity
same,"HT22 cell growth rate, GA alone",HT22 cells [1]; GA alone,appeared to reduce HT22 cell growth rate
same,"cell death, GA alone","HT22 cells [1]; GA alone, assessed after 24 hours",did not lead to cell death
same,steady state levels of hsp90,hsp90 in HT22 cells,not affected
same,expression of raf-1 proto-oncogene in rat brain,raf-1 in rat brain,decreased expression of the raf-1 proto-oncogene
same,neurological deficit scores vs vehicle,"[2]; GA 1.0 mg/kg iv after return of spontaneous circulation, n=5, scored at 24, 48, 72 hours, Kruskal-Wallace Chi-square=6.54, p<0.05 (FIG. 4)",lower in rats treated with GA (n=5) than in rats treated with vehicle
same,physiological variables during the resuscitation phase vs vehicle,"[2]; GA 1.0 mg/kg iv, rats",did not differ between groups
same,induction of hsp70 expression in fibroblasts,hsp70 in fibroblasts,induce hsp70 expression
same,"internucleosomal DNA cleavage, GA alone",HT22 cells [3]; 0.1 μg/ml GA alone,not subjected to this type of characteristic genomic DNA cleavage
same,block of glutamate-induced internucleosomal DNA cleavage,"HT22 cells [3]; 0.1 μg/ml GA, 5 mM glutamate",able to block glutamate-induced internucleosomal DNA cleavage
same,protection against simulated ischemia,[4],conferred protection against simulated ischemia
same,protection when GA is given following glutamate treatment,HT22 cells [5]; 0.1 μg/ml GA added after glutamate (FIG. 1),retained its capacity to protect HT22 cells from oxidative stress
same,protection against glutamate cytotoxicity (MTT viability),"HT22 cells [5]; 0.1 μg/ml GA, 10 mM glutamate, 20 h",less effective at this higher dose of glutamate
same,protection against glutamate cytotoxicity (MTT viability),"HT22 cells [5]; 0.1 μg/ml GA, 2 and 5 mM glutamate, 20 h (FIG. 1)",effective protection
same,time after glutamate exposure at which protection by GA was still apparent,"HT22 cells [5]; 0.1 μg/ml GA, 2 or 5 mM glutamate",6 h
same,recovery of glutathione levels,[6],did not lead to recovery of glutathione levels
same,degradation of hsp90-associated signaling molecules,[7],selective degradation of hsp90-associated signaling molecules
same,expression of hsp70 in rat brain,hsp70 in rat brain,increased expression of hsp70
same,induction of hsp70 expression in rat cardiomyocytes,[8],induce hsp70 expression
same,overexpression of heat shock proteins in cardiomyocytes,[8],overexpression of heat shock proteins
same,induction of hsp70 expression in a myogenic cell line,[9],induce hsp70 expression
same,overexpression of heat shock proteins in myogenic H9c2 cells,[9],overexpression of heat shock proteins
same,hsp70 induction by GA in the presence of glutamate,hsp70 in HT22 cells; 0.1 μg/ml GA + 5 mM glutamate,still able to induce hsp70
same,time GA-induced hsp70 levels are maintained in the presence of glutamate,hsp70 in HT22 cells; 0.1 μg/ml GA + 5 mM glutamate,up to 12 hours
same,persistence of hsp70 induction in the presence of GA,"hsp70 in HT22 cells; 0.1 μg/ml GA, HT22 cells",at least 12 hours
same,time at which GA induction of hsp70 was evident,"hsp70 in HT22 cells; 0.1 μg/ml GA, HT22 cells",≤ 3 h
same,time of maximal GA induction of hsp70,"hsp70 in HT22 cells; 0.1 μg/ml GA, HT22 cells",9 h
same,induction of hsp70 protein levels at higher doses of GA,"hsp70 in HT22 cells; doses above 0.1 μg/ml, HT22 cells",not significantly enhanced at higher doses
same,induction of hsp70 compared with heat shock,"hsp70 in HT22 cells; vs 60 minute 42° C. heat shock, 0.1 μg/ml GA",as effective as a 60 minute 42 °C heat shock
COC1C=CC=C(C)C(=O)NC2=CC(=O)C=C(C2=O)C(OC)C(C)CC(OC)C(OC)C(C)C=C(C)C1OC(N)=O (stereo not drawn) [herbimycin A],induction of hsp70 expression in fibroblasts,hsp70 in fibroblasts,induce hsp70 expression
same,protection against simulated ischemia,[4],conferred protection against simulated ischemia
same,protection from glutamate-induced oxidative toxicity (MTT viability),HT22 cells [5]; 0.5 μg/ml herbimycin A (FIG. 2),protected HT22 cells from the glutamate-induced oxidative toxicity
same,induction of hsp70 expression in rat cardiomyocytes,[8],induce hsp70 expression
same,overexpression of heat shock proteins in cardiomyocytes,[8],overexpression of heat shock proteins
same,induction of hsp70 expression in a myogenic cell line,[9],induce hsp70 expression
same,overexpression of heat shock proteins in myogenic H9c2 cells,[9],overexpression of heat shock proteins
vitamin E,protection of cultured neurons from oxidative toxicity,cultured neurons,protect cultured neurons from this form of toxicity
